Read-outs that look alike come from different tables or passages of the source.
Target: nuclear factor-kappa B (NF-kB)-inducing kinase (NIK) (Homo sapiens (Human), UniProt Q99558)
Assay: NIK Enzyme Inhibition Assay (Transcreener ADP fluorescence polarization)
Type: biochemical
Details: read-out: NIK ADP-FP (Ki uM)
Procedure: NIK Enzyme Inhibition Assay: The ability of the nuclear factor-kappa B (NF-kB)-inducing kinase (NIK) to catalyze the hydrolysis of adenosine-5′-triphosphate (ATP) was monitored using the Transcreener ADP (adenosine-5′-diphosphate) assay (BellBrook Labs). Purified NIK (0.2-1 nM) derived from a baculovirus-infected insect cell expression system was incubated with test compounds for 1-3.5 hours in 50 mM 2-[4-(2-hydroxyethyl)piperazin-1-yl]ethanesulfonic acid buffer (pH 7.2) containing 10 mM MgCl2, 2 mM dithiothreitol, 10 uM ATP, 0.01% Triton X-100, 0.1% gamma-globulins from bovine blood, 1% dimethylsulfoxide (DMSO), 12 ug/mL ADP antibody and 4 nM ADP-AlexaFluor® 633 tracer. Reactions were quenched by the addition of 20 mM 2,2′,2″,2′″-(ethane-1,2-diyldinitrilo)tetraacetic acid and 0.01% Brij 35. The tracer bound to the antibody was displaced by the ADP generated during the NIK reaction, which causes a decrease in fluorescence polarization that was measured by laser excitation at 633 nm with a Fluorescence Correlation Spectroscopy Plus reader (Evotec AG).

[1] = purified NIK 0.2-1 nM, 10 uM ATP, Morrison's quadratic equation

nuclear factor-kappa B (NF-kB)-inducing kinase (NIK), sequence (Q99558 whole entry): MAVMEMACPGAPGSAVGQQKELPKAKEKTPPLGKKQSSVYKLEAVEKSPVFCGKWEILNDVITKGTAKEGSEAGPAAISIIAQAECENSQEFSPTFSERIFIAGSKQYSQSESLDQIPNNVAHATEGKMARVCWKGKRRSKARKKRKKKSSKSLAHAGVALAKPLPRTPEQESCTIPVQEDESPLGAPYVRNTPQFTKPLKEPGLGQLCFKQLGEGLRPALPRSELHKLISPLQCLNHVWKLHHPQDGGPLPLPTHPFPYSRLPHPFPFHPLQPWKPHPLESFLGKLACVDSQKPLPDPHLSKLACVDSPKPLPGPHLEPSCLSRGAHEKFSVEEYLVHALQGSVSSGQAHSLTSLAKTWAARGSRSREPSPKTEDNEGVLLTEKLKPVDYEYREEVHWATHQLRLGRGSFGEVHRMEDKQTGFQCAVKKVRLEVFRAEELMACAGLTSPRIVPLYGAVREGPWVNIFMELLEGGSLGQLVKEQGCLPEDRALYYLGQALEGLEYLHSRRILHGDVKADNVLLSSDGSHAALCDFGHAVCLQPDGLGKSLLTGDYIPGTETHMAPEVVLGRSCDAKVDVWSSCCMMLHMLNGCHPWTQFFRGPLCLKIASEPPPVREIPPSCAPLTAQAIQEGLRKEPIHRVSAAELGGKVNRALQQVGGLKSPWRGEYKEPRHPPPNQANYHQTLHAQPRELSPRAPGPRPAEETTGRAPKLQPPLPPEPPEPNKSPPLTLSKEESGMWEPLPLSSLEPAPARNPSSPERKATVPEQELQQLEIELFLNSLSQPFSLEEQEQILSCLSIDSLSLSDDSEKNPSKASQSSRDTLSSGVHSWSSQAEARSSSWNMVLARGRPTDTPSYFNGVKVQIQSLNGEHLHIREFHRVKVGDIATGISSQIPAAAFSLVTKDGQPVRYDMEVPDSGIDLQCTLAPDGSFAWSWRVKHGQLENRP

Compound | Ki [µM] | Ki [1] [µM]
CC(O)(C#Cc1cc2c(cc1F)OCCn1cc(C(N)=O)nc1-2)c1cncnc1 (stereo not shown) [Example 18, 8-fluoro-9-(3-hydroxy-3-pyrimidin-5-yl-but-1-ynyl)-4,5-dihydro-6-oxa-1,3a-diaza-benzo[e]azulene-2-carboxylic acid amide] | > 5 | –
CC(C)(O)C#Cc1ccc2c(c1)-c1nc(C(N)=O)c(C(F)(F)F)n1CCO2 (racemic) [Example 198] | – | 0.54
Cc1nc(C(C)(O)C#Cc2cc3c(cc2Cl)OCCn2cc(C(N)=O)nc2-3)no1 (racemic) [Example 231] | – | > 5
Cc1nc([C@](C)(O)C#Cc2ccc3c(c2)-c2nc(C(N)=O)c(C(O)c4ccnn4C)n2C2CC3C2)no1 (stereo partly shown) | – | 0.0029
CC12CCC(O)(C#Cc3ccc4c(c3)-c3nc(C(N)=O)cn3CCO4)C1O2 (stereo not shown) [Example 428] | – | > 1.2
CC(C)(O)C#Cc1ccc2c(c1)-c1nc(C(N)=O)sc1C(=O)CO2 [Example 9, 9-(3-hydroxy-3-methyl-but-1-ynyl)-4-oxo-4,5-dihydro-6-oxa-3-thia-1-aza-benzo-[e]azulene-2-carboxylic acid amide] | – | 0.216
CC(O)(C#Cc1ccc2c(c1)-c1nc(C(N)=O)cn1C1CC2C1)CO (stereo not shown) [Example 181, 10-(3,4-dihydroxy-3-methyl-but-1-ynyl)-5,6,7,12-tetrahydro-5,7-methanoben-zo[c]imidazo[1,2-a]azepine-2-carboxamide] | – | 0.036
NC(=O)c1cn2c(n1)-c1cc(C#CC3(O)CCCC3)ccc1OCC2 [Example 1, 9-(1-hydroxy-cyclopentylethynyl)-4,5-di-hydro-6-oxa-1,3a-diaza-benzo[e]azulene-2-carboxylic acid amide] | – | 0.052
CC(=O)NC1COc2ccc(C#CC(C)(C)O)cc2-c2nc(C(N)=O)sc21 (stereo not shown) [Example 26, 4-acetylamino-9-(3-hydroxy-3-methyl-but-1-ynyl)-4,5-dihydro-6-oxa-3-thia-1-aza-benzo[e]azulene-2-carboxylic acid amide] | – | 0.21
CN(C)C(=O)CC1COc2ccc(C#CC(C)(C)O)cc2-c2nc(C(N)=O)sc21 (stereo not shown) [Example 43, 4-dimethylcarbamoylmethyl-9-(3-hydro-xy-3-methyl-but-1-ynyl)-4,5-dihydro-6-oxa-3-thia-1-aza-benzo[e]azulene-2-car-boxylic acid amide] | – | 0.403
CC(O)(C#Cc1cc2c(cc1F)OCCn1cc(C(N)=O)nc1-2)c1ccncn1 (stereo not shown) | – | > 5
COCC(C)(O)C#Cc1cc2c(cc1F)OCCn1c-2nc(C(N)=O)c1-c1nc(C2CC2)n[nH]1 (stereo not shown) [Example 213] | – | 0.009
CC(C)(O)C#Cc1cc2c(cc1F)C1CC(C1)n1c-2nc(C(N)=O)c1C(O)c1ccn[nH]1 (stereo not shown) [Example 309, 9-fluoro-10-(3-hydroxy-3-methyl-but-1-ynyl)-3-[hydroxy(1H-pyrazol-5-yl)meth-yl]-5,6,7,12-tetrahydro-5,7-methanoben-zo[c]imidazo[1,2-a]azepine-2-carboxamide] | – | 0.022
NC(=O)c1nc2c(s1)CCOc1ccc(C#CC3(O)CCCC3)cc1-2 [Example 4, 9-(1-hydroxy-cyclopentylethynyl)-4,5-di-hydro-6-oxa-3-thia-1-aza-benzo[e]azu-lene-2-carboxylic acid amide] | – | 0.004
CC(O)(C#Cc1cc2c(cc1F)OCCn1cc(C(N)=O)nc1-2)c1ncc(F)cn1 (stereo not shown) | – | 4
COCC1(CNC(=O)c2c(C(N)=O)nc3n2CCOc2cc(F)c(C#CC(C)(C)O)cc2-3)CC1 (racemic) [Example 69] | – | 0.041
Cc1c(C(N)=O)nc2n1CCOc1cc(F)c(C#CC(C)(C)O)cc1-2 [Example 34, 8-fluoro-9-(3-hydroxy-3-methyl-but-1-ynyl)-3-methyl-4,5-dihydro-6-oxa-1,3a-diaza-benzo[e]azulene-2-carboxylic acid amide] | – | 0.025
CNC(=O)c1c(C(N)=O)nc2n1CCOc1ccc(C#CC3(O)CCCCC3)cc1-2 | – | 0.0057
CN1CC[C@@](O)(C#Cc2ccc3c(c2)-c2nc(C(N)=O)c(COc4ccccc4Cl)n2CCO3)C1=O | 0.004 | –
